In article PMC12591191, “SIRT6 Lysine‐Demyristoylates ATF2 to Ameliorate Vascular Injury via PRKCD/VE‐Cadherin Pathway Regulating Vascular Endothelial Barrier” (Advanced Science, 2025):

Key:
293T cells = experiment: Global myristoylation level, western blot; format: cell-based
Experimental: (§1) Protein samples were separated by SDS/PAGE and transferred to the PVDF membrane. The membrane was blocked with 5% BSA in TBST (25 mM Tris, pH 7.4, 150 mM NaCl, 0.1% Tween‐20), incubated with primary antibodies and secondary antibodies in TBST, and then treated with ECL Plus western blotting detection reagents (Bio‐rad). The chemiluminescence signal was analyzed by ChemiDoc imaging system (Bio‐rad).
(§2) HMEC‐1, obtained from Shanghai Zhong Qiao Xin Zhou Biotechnology, was cultured in MCDB131 medium containing 10% foetal bovine serum (FBS) and 1% antibiotics (penicillin and streptomycin) in 5% CO2 incubator at 37 °C. HUVEC, obtained from Shanghai Zhong Qiao Xin Zhou Biotechnology, were cultured in ECM medium containing 5% FBS, 1% antibiotics (penicillin and streptomycin) and 1% endothelial cell growth supplement (ECGS) in 5% CO2 incubator at 37 °C. HEK 293T were obtained from ATCC, and cultured in Dulbecco's modified Eagle's medium (DM EM) containing 10% FBS and 1% antibiotics (penicillin and streptomycin) in 5% CO2 incubator at 37 °C. The SIRT6 KO 293T cells were constructed by Hanbio Biotechnology, the SIRT6 gRNA was 5′‐[…]‐3′. SIRT6 overexpression and knockdown recombinant lentivirus were constructed by Hanbio Biotechnology, the vector pGLV3‐harboring SIRT6 and SIRT6 shRNA (5′‐[…]‐3′) were used for lentivirus packaging. […]

ATF2 in 293T = experiment: ATF2 protein level, western blot; format: cell-based; conditions: 0–20 µg mL^−1, 12 h, n = 3
Experimental: as §1, §2

[1] = tested on: FLAG-tagged ATF2 in 293T cells; experiment: ATF2 myristoylation, IP and Click-iT; format: cell-based; conditions: 10 µg mL^−1, 12 h, n = 3
Experimental: (§3) HMEC‐1, obtained from Shanghai Zhong Qiao Xin Zhou Biotechnology, was cultured in MCDB131 medium containing 10% foetal bovine serum (FBS) and 1% antibiotics (penicillin and streptomycin) in 5% CO2 incubator at 37 °C. HUVEC, obtained from Shanghai Zhong Qiao Xin Zhou Biotechnology, were cultured in ECM medium containing 5% FBS, 1% antibiotics (penicillin and streptomycin) and 1% endothelial cell growth supplement (ECGS) in 5% CO2 incubator at 37 °C. HEK 293T were obtained from ATCC, and cultured in Dulbecco's modified Eagle's medium (DM EM) containing 10% FBS and 1% antibiotics (penicillin and streptomycin) in 5% CO2 incubator at 37 °C. The SIRT6 KO 293T cells were constructed by Hanbio Biotechnology, the SIRT6 gRNA was 5′‐[…]‐3′. SIRT6 overexpression and knockdown recombinant lentivirus were constructed by Hanbio Biotechnology, the vector pGLV3‐harboring SIRT6 and SIRT6 shRNA (5′‐[…]‐3′) were used for lentivirus packaging. The plasmid ATF2WT, ATF2K296R, GFP‐ATF2WT and GFP‐ATF2K296R were synthesized by Hanbio Biotechnology, and the plasmid pUC57‐SIRT6 and all primers were synthesized by Tsingke Biotechnology.
Click chemistry was used for the detection of K296 myristoylation of exogenous ATF2. The click chemistry‐based labeling and detection technology was conducted according to the manufacturer's instructions (Click‐iT Protein Reaction Buffer Kit Invitrogen C10276).

FLAG‐ATF2 in 293T cells = experiment: Nuclear localization of FLAG-ATF2, 293T; format: cell-based; conditions: 10 µg mL^−1, 12 h, n = 3
Experimental: as §1, §2

[2] = tested on: ATF2 in SIRT6 KD HMEC cells; experiment: Nuclear localization of ATF2, HMEC; format: cell-based; conditions: 10 µg mL^−1, 12 h, n = 3; not the K296R mutant
Experimental: as §1, §2

[3] = tested on: endogenous ATF2 in HUVECs; experiment: Nuclear localization of endogenous ATF2, HUVEC; format: cell-based; conditions: 10 µg mL^−1, 12 h, n = 3
Experimental: as §1, §2

[4] = tested on: VE‐Cadherin and PRKCD in HMEC-1; experiment: VE-Cadherin and PRKCD expression, western blot, HMEC-1; format: cell-based; conditions: 10 µg mL^−1, 12 h, n = 3
Experimental: as §1, §2

HMEC-1 [5] = experiment: Transendothelial permeability (transwell, FITC-dextran); format: cell-based; conditions: 10 µg mL^−1, 12 h; FITC‐dextran 6µg mL^−1, 2 h or 6h, n = 3
Experimental: as §2
HMEC‐1 transfected with relative plasmids were pretreated with ALK14(10 µg mL^−1) for 12 h and were grown on 0.4 µm‐pore transwell filters (Millipore, Bedford, MA) until confluent. […] Fluorescence of media in the lower chamber was detected at 485/530 nm by afluorescence microplate reader (FL × 800, BIO‐TEK Instruments).

HMEC-1 [6] = experiment: Intercellular gap formation, VE-Cadherin immunofluorescence; format: cell-based; conditions: 10 µg mL^−1, 12 h, n = 8–10; prevented by K296R
Experimental: as §3

HMEC-1 [7] = experiment: Endothelial-stromal differentiation (CD31 and αSMA western blot); format: cell-based; conditions: 10 ug/ml, 12h, n=3
Experimental: as §1, §2

[8] = tested on: ATF2 localization and PRKCD/VE‐cadherin axis in HUVECs; experiment: ALK14 versus myristic acid, ATF2 localization and PRKCD/VE-cadherin axis; format: cell-based; conditions: each 10 μg/ml, 12 hours
Experimental: as §1, §2

SIRT6 = SIRT6 activator, ref [57]; cited from earlier work
Description: Table 1 The activators of SIRT6 were represented with structure, EC50, category, company, indications, and reference. | column: EC50

| SMILES | global myristoylation level, dose dependence (293T cells; 0–10 µg mL^−1, 12 hours) | global myristoylation level, ALK14-treated versus untreated (293T cells; SIRT6 WT and KO cells, 10 μg/ml) | ATF2 protein level (ATF2 in 293T) | ATF2 myristoylation level [1] | nuclear FLAG‐ATF2 accumulation (FLAG‐ATF2 in 293T cells) | nuclear accumulation of wild‐type ATF2 [2] | ATF2 translocation [3] | PRKCD expression [4] | VE‐cadherin expression [4] | endothelial permeability, ATF2 K296R cells (HMEC-1 [5]) | endothelial permeability, ATF2 WT cells (HMEC-1 [5]) | intercellular gap formation (5 µm/10 µm), ATF2 WT (HMEC-1 [6]) | effect on endothelial‐stromal differentiation (HMEC-1 [7]) | impact on ATF2 localization and PRKCD/VE‐cadherin axis, myristic acid versus ALK14 [8] | EC50 (SIRT6) |
| --- | --- | --- | --- | --- | --- | --- | --- | --- | --- | --- | --- | --- | --- | --- | --- |
| C#CCCCCCCCCCCCC(=O)O [ALK14, Alkynyl myristic acid] | dose‐dependent increases | significantly elevated global myristoylation levels | remained stable | significant myristoylation enhancement | significantly reduced nuclear FLAG‐ATF2 accumulation | reduced nuclear accumulation of wild‐type ATF2 | translocation of endogenous ATF2 from nucleus to cytoplasm | PRKCD reduction | significantly reduced VE‐cadherin expression | absent in K296R mutants | ALK14‐induced permeability in ATF2 WT cells | ALK14‐induced gap formation | Neither ALK14 nor ATF2 modification influenced endothelial‐stromal differentiation | equivalent impacts |  |
